Measured values from US7022699B2, “Cyclohexenyl phenyl diazepines vasopressin and oxytocin receptor modulators” (Wyeth, priority 2001, dated 2006).

Molecular target: T1, human vasopressin V2 receptor subtype (Homo sapiens, UniProt P30518)
T1 construct: host or cells: CHO cells, stably transfected (pZeoSV vector); membranes
Test: Vasopressin binding in CHO cell membranes expressing human vasopressin V2 subtype receptors ([3H]arginine vasopressin)
Settings: for IC50: values in parentheses
Excerpt: Vasopressin Binding in Chinese Hamster Ovary Cell Membranes Expressing Human Vasopressin V2 Subtype Receptors
Chinese Hamster Ovary (CHO) cells stably transfected with the human V2 subtype receptors were obtained from M. Thibonnier, Case Western Reserve University School of Medicine, Cleveland, Ohio.
A. Passaging and Amplification of Cells:
CHO cells transfected with the human vasopressin V2 subtype receptors obtained from M. Thibonnier (pZeoSV vector) are allowed to grow to confluency (approx. >90%) in T-150 flasks under sterile conditions, in a cell culture medium of F-12 Nutrient Mixture (HAM) with L-glutamine (Gibco Cat. #11765-054) containing 15 mM HEPES (Gibco Cat. #15630-080), 1% antibiotic/antimycotic (add 5 mL 100×, Gibco Cat. #15240-062 per 500 mL F-12), 250 μg/mL Zeocin (add 1.25 mL of 100 mg/mL Invitrogen R-250-01 per 500 mL F-12) and 10% Fetal Bovine Serum (Qualified, heat inactivated, Gibco Cat. #16140-063). The medium is removed by aspiration and the cells washed with 10 mL of Hank's Balanced Salt solution (Gibco Cat. #14175-095). The salt solution is removed by aspiration and the cells trypsinized with 5 mL of trypsin-EDTA (0.05% trypsin, 0.53 mM EDTA-4Na, Gibco Cat. #25300-070) for 1 min. The trypsin is removed by aspiration and the cells dislodged by tapping. Cell Culture medium (e.g. 30 mL for 1:30 split) is immediately added and mixed well to inactivate trypsin. 1 mL of detached cells is added to new culture flasks containing fresh Cell Culture medium (e.g. into 25 mL per T-150 flask), and mixed gently. The cells are incubated at 37° C. in 5% CO2. The medium is changed at 3 to 4 day interval (or as appropriate). The cells grow to confluency (approx. >75%–95%) within 7–8 days. All steps are done under sterile conditions. B. Membrane Preparation: The cells are washed twice gently with Hank's Balanced Salt solution (e.g. use 10 mL per T-150 flask). The excess solution is removed and the cells bathed for 15–30 min. in an enzyme-free Cell Dissociation Buffer (e.g. use 8 mL Hank's Based, Gibco Cat. # 13150-016 per T-150 flask) until cells are loosened. The contents are transferred to centrifuge tubes (50 mL size) kept in ice bath. All subsequent steps are done at 4° C. The tubes are centrifuged at 300×g for 15 min (1380 rpm on SORVAL, Model RT6000D, using rotor for 50 mL tubes). The supernatant is discarded and the cells suspended in homogeneizing buffer (10 mM Tris-HCl containing 0.25 M sucrose and 1 mM EDTA, pH 7.4) ensuring that the volume of the buffer is about ten times the volume of the cell pellet. The cells are pooled into a centrifuge tube (50 mL) and homogenized with Polytron at setting 6 for 10 sec. The homogenate is transferred into a Potter-Elvjehm homogeneizer and homogenized with 3 strokes. The homogenate is centrifuged at 1500×g for 60 min at 4° C. (3100 rpm using SORVAL, model RT6000D, using rotor for 50 mL tubes). The pellet is discarded. The supernatant is centrifuged at 100,000×g for 60 min. at 4° C. (Beckman L8-80M ultracentrifuge; spin at 37,500 rpm with rotor type 70 Ti for 50 mL tubes; 38,000 rpm with type 80Ti for 15 mL tubes; or 35,800 rpm with rotor type 45Ti). The supernantant is discarded and the pellet suspended in 3 to 4 mL of Tris buffer (50 mM TRIS-HCl, pH 7.4). The protein content is estimated by the Bradford or Lowry method. The volume of the membrane suspension is adjusted with the membrane buffer (50 mM Tris-HCl containing 0.1% BSA and 0.1 mM PMSF) to give 3.0 mg/mL (or as appropriate) of protein. The membranes are aliquoted and stored at −70° C. C. Radioligand Binding Assay:
In wells of a 96-well format microtiter plate, is added 90, 110 or 130 μL (to make up a final volume of 200 μL) of assay buffer containing 50 mM of Tris-HCl (pH 7.4), […], 1 mg % aprotinin, 1 mg % leupeptin, 2 mg % 1,10-phenanthroline, 10 mg % trypsin inhibitor, and 0.1 mM PMSF. The inhibitors are added on the day of the experiment. […]

[1] = 100 nM, values without parentheses

T1 sequence (P30518 whole entry): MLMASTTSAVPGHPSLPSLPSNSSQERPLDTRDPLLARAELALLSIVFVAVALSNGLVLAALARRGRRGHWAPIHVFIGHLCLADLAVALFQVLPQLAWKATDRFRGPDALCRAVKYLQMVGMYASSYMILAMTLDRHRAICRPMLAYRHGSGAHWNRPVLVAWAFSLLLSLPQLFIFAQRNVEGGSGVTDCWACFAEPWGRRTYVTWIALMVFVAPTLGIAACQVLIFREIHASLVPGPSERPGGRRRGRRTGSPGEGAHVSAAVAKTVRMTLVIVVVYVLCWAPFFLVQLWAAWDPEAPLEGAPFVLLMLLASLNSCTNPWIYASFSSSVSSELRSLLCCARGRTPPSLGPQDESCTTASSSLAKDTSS

| Compound | inhibition at 0.1 µM [1] [%] | further results |
| --- | --- | --- |
| COc1cc(C2=CCCCC2)c(Cl)cc1C(=O)N1Cc2cccn2Cc2ccccc21 [Example 1, 10-(5-Chloro-4-cyclohex-1-en-1-yl-2-methoxybenzoyl)-10,11-dihydro-5H-pyrrolo[2,1-c][1,4]benzodiazepine] |  | IC50: 176 nM |
| O=C(c1ccc(C2=CC(O)CCC2)cc1)N1Cc2cccn2Cc2ccccc21 (stereo not drawn) [Example 25, (10,11-Dihydro-5H-pyrrolo[2,1-c][1,4]benzodiazepin-10-yl)-[4-(3-hydroxy-cyclohex-1-en-1-yl)-phenyl]-methanone] | 39 |  |
| Cc1cc(C(=O)N2Cc3cccn3Cc3ccccc32)ccc1C1=CCC2CC1C2(C)C (stereo not drawn) [Example 36, (10,11-Dihydro-5H-pyrrolo[2,1-c][1,4]benzodiazepin-10-yl)-[4-(6,6-dimethyl-bicyclo[3.1.1]hept-2-en-2-yl)-3-methyl-phenyl]-methanone] | 3 |  |
| Cc1cc(C(=O)N2Cc3cccn3Cc3ccccc32)ccc1C1=CCC2CCC1C2 (stereo not drawn) [Example 35, (10,11-Dihydro-5H-pyrrolo[2,1-c][1,4]benzodiazepin-10-yl)-(4-bicyclo[3.2.1]oct-2-en-2-yl-3-methyl-phenyl)-methanone] | 18 |  |
| CC1=C(c2ccc(C(=O)N3Cc4cccn4Cc4ccccc43)cc2)C(C)CCC1 (stereo not drawn) [Example 19, (10,11-Dihydro-5H-pyrrolo[2,1-c][1,4]benzodiazepin-10-yl)-[4-(2,6-dimethyl-cyclohex-1-en-1-yl)-phenyl]-methanone] | 5 |  |
| Cc1cc(C(=O)N2Cc3cccn3Cc3ccccc32)ccc1C1=CC(C)(C)CC(C)(C)C1 [Example 37, (10,11-Dihydro-5H-pyrrolo[2,1-c][1,4]benzodiazepin-10-yl)-[3-methyl-4-(3,3,5,5-tetramethyl-cyclohex-1-en-1-yl)-phenyl]-methanone] | 20 |  |
| CC1=C(c2ccc(C(=O)N3Cc4cccn4Cc4ccccc43)cc2)CCCC1 [Example 7, (10,11-Dihydro-5H-pyrrolo[2,1-c][1,4]benzodiazepin-10-yl)-[4-(2-methyl-cyclohex-1-en-1-yl)-phenyl]-methanone] |  | IC50: 162 nM |
| CC1=C(c2ccc(C(=O)N3Cc4cccn4Cc4ccccc43)c(Cl)c2)CCCC1O (stereo not drawn) [Example 14, (10,11-Dihydro-5H-pyrrolo[2,1-c][1,4]benzodiazepin-10-yl)-[2-chloro-4-(3-hydroxy-2-methyl-cyclohex-1-en-1-yl)-phenyl]-methanone] | 38 |  |
| Cc1cc(C(=O)N2Cc3cccn3Cc3ccccc32)ccc1C1=CCCCC1 [Example 2, (10,11-Dihydro-5H-pyrrolo[2,1-c][1,4]benzodiazepin-10-yl)-(4-cyclohex-1-en-1-yl-3-methyl-phenyl)-methanone] | 42 |  |
| O=C(c1ccc(C2=CCCCC2)cc1Cl)N1Cc2cccn2Cc2ccccc21 [Example 10, (10,11-dihydro-5H-pyrrolo[2,1-c][1,4]benzodiazepin-10-yl)-[2-chloro-4-(cyclohex-1-en1-yl)-phenyl]-methanone] | 65 |  |
| CC1(C)C2CC=C(c3ccc(C(=O)N4Cc5cccn5Cc5ccccc54)cc3)C1C2 (stereo not drawn) [Example 22, (10,11-Dihydro-5H-pyrrolo[2,1-c][1,4]benzodiazepin-10-yl)-[4-(6,6-dimethyl-bicyclo[3.1.1]hept-2-en-2-yl)-phenyl]-methanone] | 17 |  |
| CC1=C(c2ccc(C(=O)N3Cc4cccn4Cc4ccccc43)cc2C)C(C)CCC1 (stereo not drawn) [Example 33, (10,11-Dihydro-5H-pyrrolo[2,1-c][1,4]benzodiazepin-10-yl)-[4-(2,6-dimethyl-cyclohex-1-en-1-yl)-3-methyl-phenyl]-methanone] | 0 |  |
| CC(C)(C)C1CCCC=C1c1ccc(C(=O)N2Cc3cccn3Cc3ccccc32)cc1 (stereo not drawn) [Example 20, (10,11-5H-Dihydro-pyrrolo[2,1-c][1,4]benzodiazepin-10-yl)-[4-(6-tert-butyl-cyclohex-1-en-1-yl)-phenyl]-methanone] |  | V2 % inhibition @ 100 nM [1]: 10% |
| CO[C@@H]1CCCC(c2ccc(C(=O)N3Cc4cccn4Cc4ccccc43)cc2C)=C1C [Example 44, 10-{4-[(3R)-3-Methoxy-2-methylcyclohex-1-en-1-yl]-3-methylbenzoyl}-10,11-dihydro-5H-pyrrolo[2,1-c][1,4]benzodiazepine] | 86 |  |
| Cc1cc(C(=O)N2Cc3cccn3Cc3ccccc32)ccc1C1=CCCCC1(C)C [Example 30, (10,11-Dihydro-5H-pyrrolo[2,1-c][1,4]benzodiazepin-10-yl)-[4-(6,6-dimethyl-cyclohex-1-en-1-yl)-3-methyl-phenyl]-methanone] | 13 |  |
| CC1=C(c2ccc(C(=O)N3Cc4cccn4Cc4ccccc43)cc2C)CCC[C@@H]1O (single isomer, unassigned) [Example 43] | 45 |  |

Continued, in another order:

| inhibition at 0.1 µM [1] [%] | Compound | further results |
| --- | --- | --- |
| 49 | CC1=C(c2ccc(C(=O)N3Cc4cccn4Cc4ccccc43)cc2C)CCC[C@H]1O [Example 6, (10,11-Dihydro-5H-pyrrolo[2,1-c][1,4]benzodiazepin-10-yl)-[4-((3R)-3-hydroxy-2-methyl-cyclohex-1-en-1-yl)-3-methyl-phenyl]-methanone] |  |
| 27 | CC1=C(c2ccc(C(=O)N3Cc4cccn4Cc4ccccc43)cc2C)CCCC1N (stereo not drawn) [Example 45, [4-(3-Amino-2-methyl-cyclohex-1-en-1-yl)-3-methyl-phenyl]-(10,11-dihydro-5H-pyrrolo[2,1-c][1,4]benzodiazepin-10-yl)-methanone] |  |
| 13 | Cc1cc(C(=O)N2Cc3cccn3Cc3ccccc32)ccc1C1=CCCCC1C (stereo not drawn) [Example 29, (10,11-Dihydro-5H-pyrrolo[2,1-c][1,4]benzodiazepin-10-yl)-[3-methyl-4-(6-methyl-cyclohex-1-en-1-yl)-phenyl]-methanone] |  |
| 38 | Cc1cc(C(=O)N2Cc3cccn3Cc3ccccc32)ccc1C1=CC(=O)CCC1 [Example 39, 3-[4-(10,11-Dihydro-5H-pyrrolo[2,1-c][1,4]benzodiazepine-10-carbonyl)-2-methyl-phenyl]-cyclohex-2-en-1-one] |  |
| 48 | Cc1cc(C(=O)N2Cc3cccn3Cc3ccccc32)ccc1C1=CC(O)CCC1 (stereo not drawn) [Example 40, (10,11-Dihydro-5H-pyrrolo[2,1-c][1,4]benzodiazepin-10-yl)-[4-(3-hydroxy-cyclohex-1-en-1-yl)-3-methyl-phenyl]-methanone] |  |
| 69 | COc1cc(C2=C(C)C(=O)CCC2)c(Cl)cc1C(=O)N1Cc2cccn2Cc2ccccc21 [Example 9, 3-[2-Chloro-5-methoxy-4-(5H-pyrrolo[2,1-c][1,4]benzodiazepin-10(11H)-yl-carbonyl)phenyl]-2-methyl-cyclohex-2-en-1-one] |  |
| 55 | CC1=C(c2ccc(C(=O)N3Cc4cccn4Cc4ccccc43)c(Cl)c2)CCCC1=O [Example 13, (10,11-Dihydro-5H-pyrrolo[2,1-c][1,4]benzodiazepin-10-yl)-[2-chloro-4-(2-methyl-3-oxo-cyclohex-1-en-1-yl)-phenyl]-methanone] |  |
| 43 | CC1(C)CCCC=C1c1ccc(C(=O)N2Cc3cccn3Cc3ccccc32)cc1 [Example 17, (10,11-Dihydro-5H-pyrrolo[2,1-c][1,4]benzodiazepin-10-yl)-[4-(6,6-dimethyl-cyclohex-1-en-1-yl)-phenyl]-methanone] |  |
